Test results as given in patent US20060154236A1, “Computer-assisted analysis” (priority 2004, published 2006).
Read-outs that look alike come from different tables or passages of the source. Residues, ends and D or L forms follow the SMILES beside them. *: point of attachment. Cbz = O=C(OCc1ccccc1)*

Assays:
[1] = tested on: HeLa (human cancer) cells; assay: Hierarchical clustering of compound profiles by titration-invariant similarity score (TISS); format: cell-based
Description: When comparing drug mechanism, changes in specificity, and thus phenotype, are relevant but changes in affinity, and thus PEC, are not. […] We developed a titration-invariant similarity score (TISS) to allow comparison between dose-response profiles independent of starting dose.
Titration-invariant similarity score (TISS) for comparing descriptor and compound vectors. We developed a “titration-invariant” similarity score (TISS) to assess the similarity of compounds independent of the starting point of their titration series. The TISS between two compounds is calculated in three steps: (1) we define the notion of a titration sub-series for each compound to account for different possible starting concentrations (FIGS. 35 and 36B); (2) we define a correlation for pairs of these sub-series (FIG. 36B); (3) we define a similarity measure derived from the strongest correlation over a determined range of these sub-series (FIG. 36B).
(1) For each compound c, the complete set of z-scores across all descriptors and titrations defines a DxT-dimensional vector: Xc=(zc,l,l, . . . , zc,D,l, . . . , zc,l,T, . . . , zc,D,T), where D is the number of descriptors (=93) and T is the number of titrations (=13). In order to allow comparisons of compounds with different titration starting points, we define titration sub-series as follows: Xc(s)=(zc,l,l, . . . , zc,D,l, . . . , zc,l,T−s, . . . , zc,D,T−s) and Xc(−s)=(zc,l,s, . . . , zc,D,s, . . . , zc,l,T, . . . , zc,D,T). Intuitively, by truncating starting or ending titrations, these definitions allow us to “shift” the starting point for the titration series.
(2) For all compound vectors Xi and Xj, we define their s-correlation: xij(s)=<Xi, Xj>(s)=<Xi(s), Xj(−s)>/(∥Xi(s)∥ ∥Xj(−s)∥)
(we use the standard notation <A, B>=ΣiAiBi and ∥A∥^2=<A,A>). Thus, <Xi, Xj>(0) measures the standard correlation of vectors Xi and Xj, while <Xi, Xj>(1) drops the first titration for compound Xj and the last for Xi before measuring their correlation. For each s, we built a 200×200 such correlation matrix X(s)=(xij(s)) using all of the compounds from each of the two replicates.
(3) Given a range −S≦s≦S, we wish to look for the value of s that gives the highest correlation between two vectors.
Clustering compound and descriptor vectors. We performed standard hierarchical clustering of replicate-averaged compound (FIG. 33) or descriptor (FIG. 39) vectors using the pdist and linkage functions in Matlab. pdist was defined by the TISS for each pair of vectors. […] Compound 50 was not present in all datasets and so was also excluded.

[2] = tested on: HeLa (human cancer) cells; assay: Cytological dose-response profiling by automated fluorescence microscopy (KS statistic z-scores, 93 descriptors); format: cell-based; conditions: for response of compound profile (heat plot): 13-point titration
Experimental: The known drug set was chosen to cover common mechanisms of toxicity or therapeutic action in cancer and other diseases, and to include several groups with a common target (macromolecule or pathway) but unrelated structures. We analyzed thirteen 3-fold dilutions of each drug, covering a final concentration range on cells from micromolar to picomolar. (Table 3 and Materials & Methods). HeLa (human cancer) cells were cultured in 384-well plates to near confluence, treated with drugs for 20 hrs, fixed, and stained with fluorescent probes for various cell components and processes. We chose 11 distinct probes that covered a range of cell biology, multiplexing a DNA stain and two antibodies per well (the probe sets are: (SC35, anillin), (α-tubulin, actin), (phospho-p38, phospho-ERK), (p53, cFos), (phospho-CREB, calmodulin)). Using automated fluorescence microscopy, we collected images of up to ˜8000 cells from each well. 26 wells on each plate were treated only with DMSO to generate a control population. The experiment was performed twice in parallel to provide a replicate dataset. Image segmentation procedures were used to automatically identify nuclei and nuclear organelles, and cytoplasmic regions were approximated as an annulus surrounding each identified nucleus (FIG. 31A). For each cell, region, and probe, a set of descriptors was measured. These included measures of size, shape, and intensity, as well as ratios of intensities between regions (93 descriptors total, Table S3).
For profiling studies, it is useful to reduce each population of descriptor values to a single number. […] We devised a measure based on the Kolmogorov-Smirnov (KS) statistic, allowing nonparametric comparison of experimental and control distributions from the same plate (FIGS. 31B and 35). […] In particular, the relationship between z-score and the original physical measure may be non-linear.
Cell culture. 20 hours before compound addition, Hela cells grown in […] dishes were trypsinized, resuspended in DMEM supplemented with 10% FCS and 10 ug/mL penicillin/streptomycin, and plated in 384-well plates at an initial density of 3,000 cells per well, 40 uL per well. Compounds were purchased from Sigma (St. Louis, MO), Calbiochem (EMD Biosciences, San Diego, Calif.) and Tocris (Elliksville, MO) and are listed in Table 2. Compound stocks were prepared in DMSO and then arrayed on 384-well plates in 16 consecutive 1:3 serial dilutions in DMSO as outlined in Table 3. The highest and two lowest dilutions (rows A, 0 and P) were not used for subsequent analysis as the wells due to persistent edge effects, leaving us with a series of 13 dilutions. Each stock was diluted 16-fold in warmed culture medium, and 8 μl of this solution was added to the plated cells, resulting in a 96-fold final dilution. All conditions were performed in duplicate in separate plates. Cells were incubated at 37° C. for 20 hours, then fixed in 3% formaldehyde in PBS. All liquid handling was performed using a programmed TekBench (TekCel, Hopkinton, Mass.).
Markers. Five sets of markers were stained by standard immunofluorescence methods in this study.

transcription = assay: Preliminary in vitro transcription experiments; format: biochemical
p53 and cFos = assay: Single-cell analysis of nuclear p53 vs cFos intensity; format: cell-based, human; conditions: HeLa, 20 hrs, FIG. 34
Description: FIG. 34 is a single-cell analysis showing differing patterns of dose-dependent p53 and cFos responses to different drugs. A. Scatter plot of average nuclear p53 intensity vs. average cFos intensity in a typical control well and representative image. The bright cells at the top of the image are in mitosis. B. Dose-dependent increases in response to MG132 shown in heat maps are correlated in scatter plots and images (orange nuclei). C. Dose-dependent increases in response to camptothecin shown in heat maps are anti-correlated in scatter plots and images. The black (cFos) and green (p53) heat map values for the highest dose reflect the contribution of apoptotic cells with negligible p53 and cFos nuclear staining.
Extensions of cytological profiling to reflect dependencies among descriptors will allow more sophisticated analysis of drug responses at a systems level. For example, both p53 and cFos, a transcription factor involved in MAP-kinase signalling, are involved in cell stress responses, but the interrelationship of the p53 and MAP-kinase pathways is poorly understood (B. Kaina, Biochem Pharmacol 66:1547 (Oct. 15, 2003); incorporated herein by reference). […]

[3] = unsupervised hierarchical clustering of the 61 responsive compounds
[4] = HeLa cells, 20 hrs, thirteen 3-fold dilutions, Y = profile response above signal threshold

| Molecule | clustering of compound profile by TISS (FIG. 33) [1, 3] | Used in clustering (FIG. 33) [2, 4] | response of compound profile (heat plot) ([2]; HeLa, 20 hrs) | also measured |
| --- | --- | --- | --- | --- |
| O=C(CCCCCN1C(=O)c2cccc3cccc(c23)C1=O)NO [Compound 97, Scriptaid] | clustered closely with their unblinded counterparts and compounds of similar reported mechanism | Y | significant responses | – |
| NC(=O)NO [Compound 94, Hydroxyurea] | clustered closely with their unblinded counterparts and compounds of similar reported mechanism | Y | significant responses | – |
| Austocystin [Compound 99] | clusters with transcription and translation inhibitors | Y | strong responses | inhibition of transcription in vitro (transcription): inhibits transcription in vitro |
| Cn1cnc2c(NCc3ccccc3)nc(NCCO)nc21 [Compound 42, Olomucine] | did cluster | Y | – | – |
| CC[C@@]1(O)C(=O)OCc2c1cc1n(c2=O)Cc2cc3ccccc3nc2-1 [Compound 10, Camptothecin] | – | Y | – | relation of dose-dependent p53 and cFos responses in single cells (p53 and cFos): anti-correlated; anillin nuclear level ([2]; HeLa, 20 hrs, G2 arrested state): marked nuclear accumulation; total DNA content / cell cycle response ([2]; HeLa, 20 hrs, as drug concentration increases): arrest with S/G2 DNA content; apoptosis ([2]; HeLa, 20 hrs, at the highest concentrations): widely induced; p53 induction ([2]; HeLa, 20 hrs, concentrations sufficient to promote G2 arrest): much less so; p53 induction ([2]; HeLa, 20 hrs, high concentrations): strongly induced; p53 response (z-score heat plot) ([2]; HeLa, 20 hrs, low doses, FIG. 31C): statistically significant responses |
| CC(C)C[C@@H](C=O)NC(=O)[C@H](CC(C)C)NC(=O)[C@H](CC(C)C)NC(=O)OCc1ccccc1 [Compound 38, MG132] (Cbz-Leu-Leu-Leu-aldehyde) | – | Y | – | relation of dose-dependent p53 and cFos responses in single cells (p53 and cFos): increased correlated induction |
| CCCCCc1ccc(-c2ccc(/C=C/C(N)=O)cc2)nc1 [Compound 100, Concentramide] | difficult to interpret | Y | strong responses | – |
| CC[C@H](CO)Nc1nc(NCc2ccccc2)c2ncn(C(C)C)c2n1 [Compound 49, Roscovitine] | – | – | – | clustering of compound profile by TISS (FIG. 33) [1]: did cluster; Used in clustering (FIG. 33) [2]: Y |
| CC[C@H]1CN2CCc3cc(OC)c(OC)cc3[C@@H]2C[C@@H]1C[C@H]1NCCc2cc(OC)c(OC)cc21 [Compound 96, Emetine] | clustered closely with their unblinded counterparts and compounds of similar reported mechanism | Y | significant responses | – |
| CC[C@H](C)[C@H]1NC(=O)[C@@H](NC(=O)[C@@H](CC(C)C)N(C)C(=O)[C@@H]2CCCN2C(=O)C(C)O)[C@@H](C)OC(=O)[C@H](Cc2ccc(OC)cc2)N(C)C(=O)[C@@H]2CCCN2C(=O)[C@H](CC(C)C)NC(=O)[C@@H](C)C(=O)[C@H](C(C)C)OC(=O)C[C@@H]1O (some centres unmarked) [Compound 98, Didemnin B] | clustered with ribosome inhibitors | Y | – | – |
| CC(C)[C@H](CO)Nc1nc(Nc2cccc(Cl)c2)c2ncn(C(C)C)c2n1 [Compound 46, Purvalanol A] | did cluster | Y | – | – |
| C[C@@H]1C[C@@H]([C@H](O)CC2CC(=O)NC(=O)C2)C(=O)[C@@H](C)C1 [Compound 14, Cycloheximide] | – | Y | – | – |
